According to PubChem BioAssay (NCI):
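Results reflect a 48-hour exposure of cells in 96-well plates to compound at five concentrations. At the TGI there is no net growth.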

How the values were obtained:
Test in all cases: inhibition of tumour cell growth, NCI panel, 48 h
A549 NSCLC = system: A549 NSCLC
ACHN renal = system: ACHN renal
BT-549 breast = system: BT-549 breast
CAKI-1 renal = system: CAKI-1 renal
CCRF-CEM leukemia = system: CCRF-CEM leukemia
COLO 205 colon = system: COLO 205 colon
DU-145 prostate = system: DU-145 prostate
EKVX NSCLC = system: EKVX NSCLC
HCT-116 colon = system: HCT-116 colon
HCT-15 colon = system: HCT-15 colon
HL-60(TB) leukemia = system: HL-60(TB) leukemia
HOP-62 NSCLC = system: HOP-62 NSCLC
HS 578T breast = system: HS 578T breast
HT29 colon = system: HT29 colon
IGROV1 ovarian = system: IGROV1 ovarian
K-562 leukemia = system: K-562 leukemia
KM12 colon = system: KM12 colon
LOX IMVI melanoma = system: LOX IMVI melanoma
M14 melanoma = system: M14 melanoma
MALME-3M melanoma = system: MALME-3M melanoma
MCF7 breast = system: MCF7 breast
MDA-MB-231 breast = system: MDA-MB-231 breast
MDA-MB-435 = system: MDA-MB-435
MDA-N = system: MDA-N
MOLT-4 leukemia = system: MOLT-4 leukemia
NCI-H23 lung = system: NCI-H23 lung
NCI-H460 lung = system: NCI-H460 lung
NCI/ADR-RES ovarian = system: NCI/ADR-RES ovarian
OVCAR-3 ovarian = system: OVCAR-3 ovarian
OVCAR-4 ovarian = system: OVCAR-4 ovarian
OVCAR-5 ovarian = system: OVCAR-5 ovarian
OVCAR-8 ovarian = system: OVCAR-8 ovarian
PC-3 prostate = system: PC-3 prostate
RPMI-8226 leukemia = system: RPMI-8226 leukemia
RXF 393 renal = system: RXF 393 renal
SF-268 CNS = system: SF-268 CNS
SF-295 CNS = system: SF-295 CNS
SF-539 CNS = system: SF-539 CNS
SK-MEL-28 melanoma = system: SK-MEL-28 melanoma
SK-MEL-5 melanoma = system: SK-MEL-5 melanoma
SK-OV-3 ovarian = system: SK-OV-3 ovarian
SN12C renal = system: SN12C renal
SNB-19 CNS = system: SNB-19 CNS
SNB-75 CNS = system: SNB-75 CNS
SR leukemia = system: SR leukemia
SW-620 colon = system: SW-620 colon
T-47D breast = system: T-47D breast
TK-10 renal = system: TK-10 renal
U251 CNS = system: U251 CNS
UACC-257 melanoma = system: UACC-257 melanoma
UACC-62 melanoma = system: UACC-62 melanoma
UO-31 renal = system: UO-31 renal
786-0 renal = system: 786-0 renal
A498 renal = system: A498 renal
HCC-2998 colon = system: HCC-2998 colon
HOP-92 NSCLC = system: HOP-92 NSCLC
NCI-H226 lung = system: NCI-H226 lung
NCI-H522 lung = system: NCI-H522 lung
SK-MEL-2 melanoma = system: SK-MEL-2 melanoma

## COc1ccc(-c2c3c(nc4nc(SCCc5ccccc5)nc(N)c24)CCCC3)cc1OC
A549 NSCLC
  TGI: > 100 µM
ACHN renal
  TGI: > 100 µM
BT-549 breast
  TGI: > 100 µM
CAKI-1 renal
  TGI: > 100 µM
CCRF-CEM leukemia
  TGI: > 100 µM
COLO 205 colon
  TGI: > 100 µM
DU-145 prostate
  TGI: > 100 µM
EKVX NSCLC
  TGI: > 100 µM
HCT-116 colon
  TGI: > 100 µM
HCT-15 colon
  TGI: > 100 µM
HL-60(TB) leukemia
  TGI: > 100 µM
HOP-62 NSCLC
  TGI: > 100 µM
HS 578T breast
  TGI: > 100 µM
HT29 colon
  TGI: > 100 µM
IGROV1 ovarian
  TGI: > 100 µM
K-562 leukemia
  TGI: > 100 µM
KM12 colon
  TGI: > 100 µM
LOX IMVI melanoma
  TGI: > 100 µM
M14 melanoma
  TGI: > 100 µM
MALME-3M melanoma
  TGI: > 100 µM
MCF7 breast
  TGI: > 100 µM
MDA-MB-231 breast
  TGI: > 100 µM
MDA-MB-435
  TGI: > 100 µM
MDA-N
  TGI: > 100 µM
MOLT-4 leukemia
  TGI: > 100 µM
NCI-H23 lung
  TGI: > 100 µM
NCI-H460 lung
  TGI: > 100 µM
NCI/ADR-RES ovarian
  TGI: > 100 µM
OVCAR-3 ovarian
  TGI: > 100 µM
OVCAR-4 ovarian
  TGI: > 100 µM
OVCAR-5 ovarian
  TGI: > 100 µM
OVCAR-8 ovarian
  TGI: > 100 µM
PC-3 prostate
  TGI: > 100 µM
RPMI-8226 leukemia
  TGI: > 100 µM
RXF 393 renal
  TGI: > 100 µM
SF-268 CNS
  TGI: > 100 µM
SF-295 CNS
  TGI: > 100 µM
SF-539 CNS
  TGI: > 100 µM
SK-MEL-28 melanoma
  TGI: > 100 µM
SK-MEL-5 melanoma
  TGI: > 100 µM
SK-OV-3 ovarian
  TGI: > 100 µM
SN12C renal
  TGI: > 100 µM
SNB-19 CNS
  TGI: > 100 µM
SNB-75 CNS
  TGI: > 100 µM
SR leukemia
  TGI: > 100 µM
SW-620 colon
  TGI: > 100 µM
T-47D breast
  TGI: > 100 µM
TK-10 renal
  TGI: > 100 µM
U251 CNS
  TGI: > 100 µM
UACC-257 melanoma
  TGI: > 100 µM
UACC-62 melanoma
  TGI: > 100 µM
UO-31 renal
  TGI: > 100 µM

## [N-]=[N+]=Nc1c(-c2ccccc2)c(Cl)nc2ccccc12
786-0 renal
  TGI: > 100 µM
A498 renal
  TGI: 72.2 µM
A549 NSCLC
  TGI: > 100 µM
ACHN renal
  TGI: > 100 µM
BT-549 breast
  TGI: 77.1 µM
CAKI-1 renal
  TGI: > 100 µM
CCRF-CEM leukemia
  TGI: > 100 µM
COLO 205 colon
  TGI: 44.7 µM
EKVX NSCLC
  TGI: > 100 µM
HCC-2998 colon
  TGI: > 100 µM
HCT-116 colon
  TGI: > 100 µM
HCT-15 colon
  TGI: > 100 µM
HL-60(TB) leukemia
  TGI: > 100 µM
HOP-62 NSCLC
  TGI: > 100 µM
HOP-92 NSCLC
  TGI: > 100 µM
HS 578T breast
  TGI: > 100 µM
HT29 colon
  TGI: 52.5 µM
IGROV1 ovarian
  TGI: > 100 µM
K-562 leukemia
  TGI: > 100 µM
KM12 colon
  TGI: 45.2 µM
LOX IMVI melanoma
  TGI: 43.6 µM
M14 melanoma
  TGI: > 100 µM
MALME-3M melanoma
  TGI: > 100 µM
MDA-MB-231 breast
  TGI: > 100 µM
MDA-MB-435
  TGI: > 100 µM
MDA-N
  TGI: > 100 µM
MOLT-4 leukemia
  TGI: > 100 µM
NCI-H226 lung
  TGI: > 100 µM
NCI-H23 lung
  TGI: > 100 µM
NCI-H460 lung
  TGI: > 100 µM
NCI-H522 lung
  TGI: > 100 µM
NCI/ADR-RES ovarian
  TGI: > 100 µM
OVCAR-3 ovarian
  TGI: > 100 µM
OVCAR-4 ovarian
  TGI: > 100 µM
OVCAR-5 ovarian
  TGI: > 100 µM
OVCAR-8 ovarian
  TGI: > 100 µM
PC-3 prostate
  TGI: > 100 µM
RPMI-8226 leukemia
  TGI: > 100 µM
RXF 393 renal
  TGI: > 100 µM
SF-268 CNS
  TGI: > 100 µM
SF-295 CNS
  TGI: > 100 µM
SF-539 CNS
  TGI: > 100 µM
SK-MEL-2 melanoma
  TGI: > 100 µM
SK-MEL-28 melanoma
  TGI: > 100 µM
SK-MEL-5 melanoma
  TGI: 34.5 µM
SK-OV-3 ovarian
  TGI: > 100 µM
SN12C renal
  TGI: > 100 µM
SNB-19 CNS
  TGI: > 100 µM
SNB-75 CNS
  TGI: > 100 µM
SR leukemia
  TGI: > 100 µM
SW-620 colon
  TGI: > 100 µM
T-47D breast
  TGI: > 100 µM
TK-10 renal
  TGI: > 100 µM
U251 CNS
  TGI: > 100 µM
UACC-257 melanoma
  TGI: 59.8 µM
UO-31 renal
  TGI: > 100 µM
